Source: PubChem BioAssay (NCI)
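48-hour exposure; five concentrations; linearly interpolated endpoints. Here, GI50 denotes the concentration required for 50% inhibition of growth. TGI is the concentration that stops growth completely.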

Legend:
Experiment in all cases: inhibition of tumour cell growth, NCI panel, 48 h
SNB-19 CNS = test system: SNB-19 CNS
SF-295 CNS = test system: SF-295 CNS
BT-549 breast = test system: BT-549 breast
SF-268 CNS = test system: SF-268 CNS
NCI-H23 lung = test system: NCI-H23 lung
SN12C renal = test system: SN12C renal
COLO 205 colon = test system: COLO 205 colon
SK-MEL-2 melanoma = test system: SK-MEL-2 melanoma
NCI-H522 lung = test system: NCI-H522 lung
U251 CNS = test system: U251 CNS
SNB-75 CNS = test system: SNB-75 CNS

SMILES	TGI (SNB-19 CNS) [µM]	TGI (SF-295 CNS) [µM]	TGI (BT-549 breast) [µM]	TGI (SF-268 CNS) [µM]	TGI (NCI-H23 lung) [µM]	TGI (SN12C renal) [µM]	TGI (COLO 205 colon) [µM]	TGI (SK-MEL-2 melanoma) [µM]	TGI (NCI-H522 lung) [µM]	TGI (U251 CNS) [µM]	TGI (SNB-75 CNS) [µM]	GI50 (SF-295 CNS) [µM]	GI50 (NCI-H23 lung) [µM]
CC(C)(C)OC(=O)C1/C(=C/CBr)CN1C(=O)OC(C)(C)C (stereo unspecified)	32.5	30.5	36.2	21.2	28.8	27	6.1						
CCOC(=O)c1ccc(N(CCOS(=O)(=O)c2ccc(C)cc2)CCOS(=O)(=O)c2ccc(C)cc2)cc1	> 100	> 100	> 100	> 100	> 100		> 100	66.8	> 100	46.6			
C/C(=C\CC/C=C(\C)CC/C=C(\C)CCC1SC1(C)C)CC/C=C(\C)CCC1OC1(C)C (stereo unspecified)	> 100	> 100		> 100	> 100	> 100	> 100	> 100	> 100	> 100	> 100		
CC(=O)OCC1OC(n2c(O)c(N=NC(N)=S)c3ccc([N+](=O)[O-])cc32)C(OC(C)=O)C1OC(C)=O (stereo unspecified)	> 100	> 100		> 100	42.1	> 100	> 100	47.2	31.4	87.6	82.8		
O=C(O)CCC(NC(=O)c1ccc(Oc2nc3ccccc3nc2-c2ccccc2)cc1)C(=O)O (stereo unspecified)	> 100	> 100		> 100	> 100	> 100	> 100	> 100	> 100	> 100	> 100		
COc1cc([C@@H]2c3cc4c(cc3[C@@H](NC(=O)NO)[C@H]3COC(=O)[C@H]23)OCO4)cc(OC)c1O	> 100	> 100		> 100	> 100	> 100	> 100	> 100	> 100	> 100		4.97	9.31
CCOC(OC1=C(C#N)CCCC1)C(CC)[Se]c1ccccc1[N+](=O)[O-] (stereo unspecified)	72.5	47		43.6	31.3	42.7	> 100	> 100	30.9	30.9	49.5		
CCOC(=O)c1ccn2c(c1)c(C#N)c1nc3ccccc3nc12	> 100			> 100	> 100	> 100	> 100	> 100	> 100	> 100	> 100		
